In patent publication US20230111853A1, “COMPOUNDS MODULATING PROTEIN RECRUITMENT AND/OR DEGRADATION” (Orionis Biosciences, Inc., priority 2019, published 2023):

How the values were obtained:
Format in all cases: cell-based
ASS1 recruitment to CRBN = biological target: T1, ASS1 recruitment to CRBN (Homo sapiens, UniProt Q96SW2); assay: Recruitment Assay (MAPPIT-like): ASS1 recruitment to CRBN; details: HEK293T cells; pSEL-CRBN+pMG1-ASS1; luciferase 24 hours after treatment; read-out: EC50_ASS1
T1 construct: Full size proteins were fused for each of the target proteins tested, except in the case of IKZF1 where isoform 7 was used; expressed in transfected cells; host or cells: HEK293T
Description: (§1) In this experimental set-up, cells were transfected with a construct encoding a CRBN-fusion protein and another one encoding a substrate-fusion protein. Test compound activity was assessed with increasing concentrations of test compounds (dose-response studies) to monitor the ability to promote CRBN-ligand-induced protein interaction.
(§2) Full size proteins were fused for each of the target proteins tested, except in the case of IKZF1 where isoform 7 was used. For the study, the following were used: IKZF1 recruitment: pSEL-CRBN+pMG1-IKZF1(isoform 7); ASS1 recruitment: pSEL-CRBN+pMG1-ASS1. SALL4 recruitment: pSEL-SALL4+pMG1-CRBN. […] Luciferase activity was measured 24 hours after test compound treatment using the Luciferase Assay System kit (PROMEGA, Madison, Wis.) with an Ensight plate reader (PERKIN ELMER LIFE SCIENCES, Waltham, Mass.). Data points depicted fold induction of the average luciferase activity of triplicate samples from EPO+test compound treated cells versus EPO only treated cells. Error bars represent standard deviations. Curves were fit using 4-parameter nonlinear regression in […] PRISM software.

[1] = biological target: T2, SALL4 recruitment to CRBN (Homo sapiens, UniProt Q96SW2); assay: Recruitment Assay (MAPPIT-like): SALL4 recruitment to CRBN; details: HEK293T cells; pSEL-SALL4+pMG1-CRBN; luciferase 24 hours after treatment; read-out: EC50_SALL4
T2 construct: Full size proteins were fused for each of the target proteins tested, except in the case of IKZF1 where isoform 7 was used; expressed in transfected cells; host or cells: HEK293T
Description: as §1, §2

[2] = tested on: IKZF1, ASS1 and SALL4 recruitment to CRBN; assay: Recruitment assessment: recruitment of any tested substrate from among IKZF1, ASS1 and SALL4; details: any tested substrate at any tested compound concentration
[3] = biological target: T3, IKZF1 (isoform 7) recruitment to CRBN (Homo sapiens, UniProt Q96SW2); assay: Recruitment Assay (MAPPIT-like): IKZF1 recruitment to CRBN; details: HEK293T cells; pSEL-CRBN+pMG1-IKZF1(isoform 7); luciferase 24 hours after treatment; read-out: EC50_IKZF1
T3 construct: Full size proteins were fused for each of the target proteins tested, except in the case of IKZF1 where isoform 7 was used; expressed in transfected cells; host or cells: HEK293T
Description: as §1, §2

T3 sequence (Q96SW2 whole entry, the tested form may be a part, canonical isoform): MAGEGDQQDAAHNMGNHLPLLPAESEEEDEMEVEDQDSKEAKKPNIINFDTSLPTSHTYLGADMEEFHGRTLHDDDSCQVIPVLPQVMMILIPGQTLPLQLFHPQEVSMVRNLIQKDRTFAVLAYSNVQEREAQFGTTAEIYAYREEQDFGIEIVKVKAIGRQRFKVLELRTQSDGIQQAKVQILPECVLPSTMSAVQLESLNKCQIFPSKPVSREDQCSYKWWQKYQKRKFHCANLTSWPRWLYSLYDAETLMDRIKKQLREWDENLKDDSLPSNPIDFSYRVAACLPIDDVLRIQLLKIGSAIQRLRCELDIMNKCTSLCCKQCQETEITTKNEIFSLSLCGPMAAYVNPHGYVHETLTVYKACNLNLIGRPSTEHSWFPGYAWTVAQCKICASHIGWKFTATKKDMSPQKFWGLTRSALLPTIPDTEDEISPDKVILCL
T3 sequence (Q13422 1-477 isoform Q13422-7 partner): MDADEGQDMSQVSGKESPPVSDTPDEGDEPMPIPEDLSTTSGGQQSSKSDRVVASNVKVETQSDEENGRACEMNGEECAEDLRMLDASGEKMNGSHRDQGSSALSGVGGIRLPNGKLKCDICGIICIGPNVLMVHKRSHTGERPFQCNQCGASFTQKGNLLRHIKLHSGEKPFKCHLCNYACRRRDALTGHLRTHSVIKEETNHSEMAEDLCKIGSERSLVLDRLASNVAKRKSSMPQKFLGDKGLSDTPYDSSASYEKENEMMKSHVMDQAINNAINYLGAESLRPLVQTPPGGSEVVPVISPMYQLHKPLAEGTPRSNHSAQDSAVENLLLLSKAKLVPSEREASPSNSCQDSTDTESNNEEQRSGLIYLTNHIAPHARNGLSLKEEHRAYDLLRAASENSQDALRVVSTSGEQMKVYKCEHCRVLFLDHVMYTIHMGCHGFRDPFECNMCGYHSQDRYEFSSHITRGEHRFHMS
T3 sequence (Q16531 whole entry partner, the tested form may be a part, canonical isoform): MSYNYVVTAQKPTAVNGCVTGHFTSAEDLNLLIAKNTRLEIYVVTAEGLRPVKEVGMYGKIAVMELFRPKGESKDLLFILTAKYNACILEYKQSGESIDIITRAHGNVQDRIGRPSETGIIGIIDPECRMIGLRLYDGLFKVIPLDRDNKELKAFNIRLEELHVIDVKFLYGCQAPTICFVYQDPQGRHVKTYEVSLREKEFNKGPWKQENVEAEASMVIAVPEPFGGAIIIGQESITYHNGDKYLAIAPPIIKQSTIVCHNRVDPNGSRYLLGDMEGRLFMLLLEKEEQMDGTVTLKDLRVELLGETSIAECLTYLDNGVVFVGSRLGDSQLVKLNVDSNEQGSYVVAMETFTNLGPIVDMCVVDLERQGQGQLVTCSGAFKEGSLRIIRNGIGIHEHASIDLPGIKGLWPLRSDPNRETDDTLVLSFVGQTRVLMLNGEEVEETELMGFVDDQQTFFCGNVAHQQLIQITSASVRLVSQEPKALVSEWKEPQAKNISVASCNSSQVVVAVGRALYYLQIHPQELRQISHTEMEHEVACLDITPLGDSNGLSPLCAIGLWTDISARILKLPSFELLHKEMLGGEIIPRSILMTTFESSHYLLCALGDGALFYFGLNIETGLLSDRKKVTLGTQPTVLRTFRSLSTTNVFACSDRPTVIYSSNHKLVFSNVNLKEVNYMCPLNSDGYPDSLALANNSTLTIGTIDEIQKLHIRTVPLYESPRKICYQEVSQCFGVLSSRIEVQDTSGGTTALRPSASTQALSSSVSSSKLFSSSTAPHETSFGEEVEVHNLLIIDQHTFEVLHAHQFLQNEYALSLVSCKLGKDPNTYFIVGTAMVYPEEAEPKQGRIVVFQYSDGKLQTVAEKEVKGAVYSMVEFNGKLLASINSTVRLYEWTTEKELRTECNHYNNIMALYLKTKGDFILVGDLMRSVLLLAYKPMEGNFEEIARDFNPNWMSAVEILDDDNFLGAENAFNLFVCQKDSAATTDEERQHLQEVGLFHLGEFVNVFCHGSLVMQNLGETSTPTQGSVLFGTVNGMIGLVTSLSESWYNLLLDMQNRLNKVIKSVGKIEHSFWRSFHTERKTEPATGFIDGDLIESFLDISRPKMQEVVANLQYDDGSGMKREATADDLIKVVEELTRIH
T2 sequence (Q96SW2 whole entry, the tested form may be a part, canonical isoform): as the sequence (Q96SW2 whole entry, the tested form may be a part, canonical isoform) above
T2 sequence (Q9UJQ4 whole entry partner, the tested form may be a part, canonical isoform): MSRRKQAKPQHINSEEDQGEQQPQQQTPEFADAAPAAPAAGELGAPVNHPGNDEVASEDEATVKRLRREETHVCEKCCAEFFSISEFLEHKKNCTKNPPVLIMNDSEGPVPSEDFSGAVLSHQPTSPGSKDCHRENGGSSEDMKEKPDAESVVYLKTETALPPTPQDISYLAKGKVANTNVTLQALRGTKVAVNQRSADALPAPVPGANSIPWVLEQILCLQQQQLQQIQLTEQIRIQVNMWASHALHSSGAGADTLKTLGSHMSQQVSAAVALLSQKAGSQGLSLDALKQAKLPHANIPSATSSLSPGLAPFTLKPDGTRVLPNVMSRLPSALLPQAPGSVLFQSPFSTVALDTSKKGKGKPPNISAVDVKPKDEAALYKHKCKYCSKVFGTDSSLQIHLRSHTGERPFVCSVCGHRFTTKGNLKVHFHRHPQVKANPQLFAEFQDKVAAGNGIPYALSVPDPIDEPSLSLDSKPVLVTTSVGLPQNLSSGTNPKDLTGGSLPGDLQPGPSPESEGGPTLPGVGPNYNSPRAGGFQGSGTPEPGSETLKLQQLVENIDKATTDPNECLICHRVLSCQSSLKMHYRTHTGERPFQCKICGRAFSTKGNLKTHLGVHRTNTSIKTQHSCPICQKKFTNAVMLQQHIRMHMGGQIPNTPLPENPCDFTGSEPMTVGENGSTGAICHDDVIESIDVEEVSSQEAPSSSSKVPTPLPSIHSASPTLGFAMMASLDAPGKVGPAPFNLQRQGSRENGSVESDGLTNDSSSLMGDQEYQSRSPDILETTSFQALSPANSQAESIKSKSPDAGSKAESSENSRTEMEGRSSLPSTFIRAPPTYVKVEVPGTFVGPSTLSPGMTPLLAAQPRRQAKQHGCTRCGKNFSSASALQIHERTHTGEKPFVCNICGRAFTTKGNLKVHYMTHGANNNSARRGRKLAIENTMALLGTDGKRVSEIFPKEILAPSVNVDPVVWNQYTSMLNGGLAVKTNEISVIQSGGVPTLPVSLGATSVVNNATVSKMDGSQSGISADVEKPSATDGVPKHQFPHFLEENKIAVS
T2 sequence (Q16531 whole entry partner, the tested form may be a part, canonical isoform): as the sequence (Q16531 whole entry partner, the tested form may be a part, canonical isoform) above
T1 sequence (Q96SW2 whole entry, the tested form may be a part, canonical isoform): as the sequence (Q96SW2 whole entry, the tested form may be a part, canonical isoform) above
T1 sequence (P00966 whole entry partner, the tested form may be a part, canonical isoform): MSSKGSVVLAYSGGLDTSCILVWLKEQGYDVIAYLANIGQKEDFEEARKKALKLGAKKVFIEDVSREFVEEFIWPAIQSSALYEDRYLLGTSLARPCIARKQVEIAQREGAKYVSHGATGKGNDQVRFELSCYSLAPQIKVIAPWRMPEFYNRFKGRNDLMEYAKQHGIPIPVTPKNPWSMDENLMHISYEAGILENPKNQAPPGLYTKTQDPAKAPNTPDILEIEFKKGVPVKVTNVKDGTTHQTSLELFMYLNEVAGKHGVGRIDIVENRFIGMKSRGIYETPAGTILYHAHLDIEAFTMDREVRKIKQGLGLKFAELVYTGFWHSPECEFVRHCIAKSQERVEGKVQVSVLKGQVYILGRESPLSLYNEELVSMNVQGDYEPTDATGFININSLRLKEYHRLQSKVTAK
T1 sequence (Q16531 whole entry partner, the tested form may be a part, canonical isoform): as the sequence (Q16531 whole entry partner, the tested form may be a part, canonical isoform) above

EC50 (ASS1 recruitment to CRBN)	EC50 [1]	EC50 [3]	SMILES	Recruitment Assessment [2]
	875 nM	17100 nM	N#CC1c2ccccc2C(=O)N1C1CCC(=O)NC1=O (centres unmarked) [C39453, 2-(2,6-dioxo-3-piperidyl)-3-oxo-isoindoline-1-carbonitrile]	TRUE
		784 nM	Nc1cccc2c1CN(C1CC(=O)NC1=O)C2=O (centres unmarked) [C47930, 3-(4-amino-1-oxo-isoindolin-2-yl)pyrrolidine-2,5-dione]	TRUE
	801 nM	4680 nM	O=C(O)CN1CCN(Cc2ccc(COc3cccc4c3CN(C3CCC(=O)NC3=O)C4=O)cc2)CC1.O=CO (centres unmarked) [ZE26-0001, 2-[4-[[4-[[2-(2,6-dioxo-3-piperidyl)-1-oxo-isoindolin-4-yl]oxymethyl]phenyl]methyl]piperazin-1-yl]acetic acid; formic acid]	TRUE
		1410 nM	O=C1CCCC(N2Cc3c(cccc3[N+](=O)[O-])C2=O)C(=O)N1 (centres unmarked) [C29737, 3-(4-nitro-1-oxo-isoindolin-2-yl)azepane-2,7-dione]	TRUE
	1080 nM	1330 nM	O=C1CCC(N2Cc3cc(NCC(=O)Nc4ccccc4)ccc3C2=O)C(=O)N1 (centres unmarked) [C35797, 2-[[2-(2,6-dioxo-3-piperidyl)-1-oxo-isoindolin-5-yl]amino]-N-phenyl-acetamide]	TRUE
	438 nM		O=C1CCC(N2C(=O)c3ccccc3C2O)C(=O)N1 (centres unmarked) [C89940, 3-(1-hydroxy-3-oxo-isoindolin-2-yl)piperidine-2,6-dione]	TRUE
	319 nM		O=C1CCC(N2Cc3cc4c(cc3C2=O)OCO4)C(=O)N1 (centres unmarked) [C68126, 3-(7-oxo-5H-[1,3]dioxolo[4,5-f]isoindol-6-yl)piperidine-2,6-dione]	TRUE
	278 nM		CCOC(=O)NCCNc1ccc2c(c1)CN(C1CCC(=O)NC1=O)C2=O (centres unmarked) [C35754, ethyl N-[2-[[2-(2,6-dioxo-3-piperidyl)-1-oxo-isoindolin-5-yl]amino]ethyl]carbamate]	TRUE
	430 nM	1620 nM	N#Cc1ccc2c(c1)C(=O)N(C1CCC(=O)NC1=O)C2 (centres unmarked) [C48007, 2-(2,6-dioxo-3-piperidyl)-3-oxo-isoindoline-5-carbonitrile]	TRUE
	1140 nM		CN(C)CC(=O)Nc1cccc2c1CN(C1CCC(=O)NC1=O)C2=O (centres unmarked) [C22586, 2-(dimethylamino)-N-[2-(2,6-dioxo-3-piperidyl)-1-oxo-isoindolin-4-yl] acetamide]	TRUE
	595 nM		N#Cc1ccc2c(c1)CN(C1CCC(=O)NC1=O)C2=O (centres unmarked) [C48005, 2-(2,6-dioxo-3-piperidyl)-1-oxo-isoindoline-5-carbonitrile]	TRUE
	4820 nM		O=C1CCC(N2Cc3ccccc3C2)C(=O)N1 (centres unmarked) [C87699, 3-isoindolin-2-ylpiperidine-2.6-dione]	TRUE
	518 nM		O=C(O)CNc1ccc2c(c1)CN(C1CCC(=O)NC1=O)C2=O (centres unmarked) [C47995, 2-[[2-(2,6-dioxo-3-piperidyl)-1-oxo-isoindolin-5-yl]amino]acetic acid]	TRUE
	2630 nM		CC(=O)NCCNc1ccc2c(c1)CN(C1CCC(=O)NC1=O)C2=O (centres unmarked) [C35745, N-[2-[[2-(2,6-dioxo-3-piperidyl)-1-oxo-isoindolin-5-yl]amino]ethyl]acetamide]	TRUE
	152 nM		O=C1CCC(N2Cc3ccc(Nc4ncc5c(n4)COC5)cc3C2=O)C(=O)N1 (centres unmarked) [C80391, 3-[6-(5,7-dihydrofuro[3,4-d]pyrimidin-2-ylamino)-1-oxo-isoindolin-2-yl]piperidine-2,6-dione]	TRUE

More lines, now with the values behind:

SMILES	EC50 (ASS1 recruitment to CRBN)	EC50 [1]	EC50 [3]	Recruitment Assessment [2]
O=C1CCC(N2Cc3cc(NCCNC(=O)Nc4ccccc4)ccc3C2=O)C(=O)N1 (centres unmarked) [C35751, 1-[2-[[2-(2,6-dioxo-3-piperidyl)-1-oxo-isoindolin-5-yl]amino]ethyl]-3-phenyl-urea]	1450 nM	232 nM		TRUE
O=C1CCC(N2Cc3cc(Nc4ncc5c(n4)COC5)ccc3C2=O)C(=O)N1 (centres unmarked) [C80380, 3-[5-(5,7-dihydrofuro[3,4-d]pyrimidin-2-ylamino)-1-oxo-isoindolin-2-yl]piperidine-2,6-dione]		9.89 nM	1780 nM	TRUE
CS(=O)(=O)Nc1cccc2c1CN(C1CCC(=O)NC1=O)C2=O (centres unmarked) [C22548, N-[2-(2,6-dioxo-3-piperidyl)-1-oxo-isoindolin-4-yl] methanesulfonamide]		631 nM	494 nM	TRUE
CN(C)c1ccc2c(c1)CN(C1CCC(=O)NC1=O)C2=O (centres unmarked) [C98103, 3-[5-(dimethylamino)-1-oxo-isoindolin-2-yl]piperidine-2,6-dione]		< 13.7 nM	1290 nM	TRUE
O=C(CNc1ccc2c(c1)CN(C1CCC(=O)NC1=O)C2=O)NCc1ccccc1 (centres unmarked) [C35856]		188 nM	1150 nM	TRUE
Cc1nc2ccc(C#N)c(N)c2c(=O)n1C1CCC(=O)NC1=O (centres unmarked) [C10001, 5-amino-3-(2,6-dioxo-3-piperidyl)-2-methyl-4-oxo-quinazoline-6-carbonitrile]		1250 nM		TRUE
CC(=O)NC1c2ccccc2C(=O)N1C1CCC(=O)NC1=O (centres unmarked) [C33779, N-[2-(2,6-dioxo-3-piperidyl)-3-oxo-isoindolin-1-yl]acetamide]		3030 nM		TRUE
Cc1ccc2c(c1)C(=O)N(C1CCC(=O)NC1=O)C2 (centres unmarked) [C28620, 3-(6-methyl-1-oxo-isoindolin-2-yl)piperidine-2,6-dione]		270 nM		TRUE
O=C1CCC(N2Cc3c(NC(=O)Nc4cccc5c4CN(C4CCC(=O)NC4=O)C5=O)cccc3C2=O)C(=O)N1 (centres unmarked) [C30231, 1,3-bis[2-(2,6-dioxo-3-piperidyl)-1-oxo-isoindolin-4-yl]urea]		1700 nM	2730 nM	TRUE
O=C1CCC(N2C(=O)c3ccccc3C2NCc2ccccc2)C(=O)N1 (centres unmarked) [C10239, 3-[1-(benzylamino)-3-oxo-isoindolin-2-yl]piperidine-2,6-dione]		1160 nM		TRUE
O=C1CCC(N2C(=O)C3=C(C2=O)c2ccccc2CC3)C(=O)N1 (centres unmarked) [C64340, 2-(2,6-dioxo-3-piperidyl)-4,5-dihydrobenzo[e]isoindole-1,3-dione]		1490 nM		TRUE
O=C1CCC(N2Cc3cc(Nc4ncccn4)ccc3C2=O)C(=O)N1 (centres unmarked) [C80369, 3-[1-oxo-5-(pyrimidin-2-ylamino)isoindolin-2-yl]piperidine-2,6-dione]	1290 nM			TRUE
CCOC(=O)Nc1cccc2c1CN(C1CCC(=O)NC1=O)C2=O (centres unmarked) [C22622, ethyl N-[2-(2,6-dioxo-3-piperidyl)-1-oxo-isoindolin-4-yl]carbamate]		121 nM		TRUE
O=C1CCC(N2Cc3ccc(NCC(=O)NC4CCOC4)cc3C2=O)C(=O)N1 (centres unmarked) [C12694, 2-[[2-(2,6-dioxo-3-piperidyl)-3-oxo-isoindolin-5-yl]amino]-N-tetrahydrofuran-3-yl-acetamide]		3430 nM		TRUE
